What was measured:
[1] = Cytotoxicity against human HEK293 cells assessed as decrease in cell viability after 20 hrs by resazurin based fluorescence assay; format: toxicity
[2] = Drug metabolism in human liver microsomes assessed as R-(+)- N-((1-hydroxy-1,2,3,5,6,7-hexahydro-s-indacen-4-yl)carbamoyl)-4-(2-hydroxypropan-2-yl)furan-2-sulfonamide formation at 5 uM preincubated for 20 mins followed by NADPH addition measured after 120 mins by QTOF-ESI-MS/MS analysis; format: ADME; settings: 2 h
[3] = Cytotoxicity against human HepG2 cells assessed as decrease in cell viability after 20 hrs by resazurin based fluorescence assay; format: toxicity
[4] = Drug metabolism in human liver microsomes assessed as N-((1-hydroxy-1,2,3,5,6,7-hexahydro-s-indacen-4-yl)carbamoyl)-4-(2-hydroxypropan-2-yl)furan-2-sulfonamide formation at 5 uM preincubated for 20 mins followed by NADPH addition measured after 120 mins by HPLC/ESI-SRM-MS/MS analysis; format: ADME; settings: 2 h
[5] = Drug metabolism in human liver microsomes assessed as R-(+)- N-((1-hydroxy-1,2,3,5,6,7-hexahydro-s-indacen-4-yl)carbamoyl)-4-(2-hydroxypropan-2-yl)furan-2-sulfonamide formation at 5 uM preincubated for 20 mins followed by NADPH addition measured after 120 mins by HPLC/ESI-SRM-MS/MS analysis; format: ADME; settings: 2 h
[6] = biological target: NACHT, LRR and PYD domains-containing protein 3 (Homo sapiens, UniProt Q96P20); experiment: Inhibition of NLRP3 inflammasome in LPS-stimulated human monocyte derived macrophages assessed as reduction in NLRP3 inflammasome-induced IL-1beta production preincubated for 30 mins followed by NLRP3 stimulation with ATP for 1 hr by ELISA
Sequence of NACHT, LRR and PYD domains-containing protein 3 (Q96P20 whole entry, the tested form may be a part): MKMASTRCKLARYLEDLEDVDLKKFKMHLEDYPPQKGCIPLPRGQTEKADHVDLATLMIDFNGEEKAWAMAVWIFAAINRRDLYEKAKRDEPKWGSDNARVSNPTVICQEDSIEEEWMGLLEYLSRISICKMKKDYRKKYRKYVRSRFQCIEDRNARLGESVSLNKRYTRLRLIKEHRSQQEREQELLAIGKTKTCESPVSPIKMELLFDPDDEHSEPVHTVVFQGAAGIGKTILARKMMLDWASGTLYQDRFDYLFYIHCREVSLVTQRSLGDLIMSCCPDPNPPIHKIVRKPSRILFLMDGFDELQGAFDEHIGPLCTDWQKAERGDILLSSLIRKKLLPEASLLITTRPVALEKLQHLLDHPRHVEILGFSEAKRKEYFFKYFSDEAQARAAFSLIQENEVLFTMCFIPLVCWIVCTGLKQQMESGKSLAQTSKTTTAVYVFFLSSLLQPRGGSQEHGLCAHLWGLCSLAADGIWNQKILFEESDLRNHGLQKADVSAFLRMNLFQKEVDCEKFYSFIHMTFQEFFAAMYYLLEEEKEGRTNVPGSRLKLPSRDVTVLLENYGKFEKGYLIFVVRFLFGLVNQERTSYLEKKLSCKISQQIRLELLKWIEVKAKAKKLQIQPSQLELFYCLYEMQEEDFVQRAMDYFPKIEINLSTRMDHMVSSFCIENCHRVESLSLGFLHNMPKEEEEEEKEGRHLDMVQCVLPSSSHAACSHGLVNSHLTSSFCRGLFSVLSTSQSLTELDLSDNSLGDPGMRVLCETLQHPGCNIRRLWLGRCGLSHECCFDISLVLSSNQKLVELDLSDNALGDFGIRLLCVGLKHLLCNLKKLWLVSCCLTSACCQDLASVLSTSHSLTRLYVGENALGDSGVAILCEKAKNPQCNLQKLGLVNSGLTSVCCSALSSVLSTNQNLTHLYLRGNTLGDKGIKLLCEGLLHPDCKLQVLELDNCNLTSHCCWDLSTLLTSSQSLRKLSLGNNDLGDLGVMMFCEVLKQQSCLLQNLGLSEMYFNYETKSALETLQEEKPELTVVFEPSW

[7] = Drug level in human liver microsomes treated with 5 uM MCC950 preincubated for 20 mins followed by NADPH addition measured after 120 mins by HPLC/ESI-SRM-MS/MS analysis; format: ADME; settings: 2 h
[8] = Drug level in human liver microsomes treated with 5 uM MCC950 preincubated for 20 mins followed by NADPH addition measured after 120 mins by QTOF-ESI-MS/MS analysis; format: ADME; settings: 2 h

Row | SMILES | CC50 at 20 h [1] [µM] | Drug metabolism [2] | CC50 at 20 h [3] [µM] | Drug metabolism [4] | Drug metabolism [5] | IC50 [6] [µM] | Drug metabolism [7] | Drug metabolism [8]
1 | CC(C)(O)c1coc(S(=O)(=O)NC(=O)Nc2c3c(cc4c2CCC4)CCC3)c1 | > 62.5 | Metabolite_Detected | > 62.5 | Metabolite_Detected | Metabolite_Detected |  |  | 
2 | CC(C)(O)c1coc(S(=O)(=O)NC(=O)Nc2c3c(cc4c2CC[C@@H]4O)CCC3)c1 |  |  |  |  |  | 6.35 |  | 
3 | CC(C)(O)c1coc(S(=O)(=O)NC(=O)Nc2c3c(cc4c2CC(O)C4)CCC3)c1 (centres undefined) | > 62.5 |  | > 62.5 |  |  | 1.83 |  | 
4 | CC(C)(O)c1coc(S(=O)(=O)NC(=O)Nc2c3c(cc4c2CC[C@H]4O)CCC3)c1 |  |  |  |  |  | 1.24 | Metabolite_Detected | Metabolite_Detected
5 | CC(C)(O)c1coc(S(=O)(=O)NC(=O)Nc2c3c(cc4c2C(O)CC4)CCC3)c1 (racemic) | > 62.5 |  | > 62.5 |  |  | 0.232 |  | 
6 | CC(C)(O)c1coc(S(=O)(=O)NC(=O)Nc2c3c(cc4c2CCC4O)CCC3)c1 (racemic) | > 62.5 |  | > 62.5 |  |  | 1.97 | Metabolite_Detected | 

— ChEMBL document CHEMBL3862040, “Identification, Synthesis, and Biological Evaluation of the Major Human Metabolite of NLRP3 Inflammasome Inhibitor MCC950” (ACS Med Chem Lett, 2016)
